Test system: HL-1 cardiomyocytes
Conditions: HL-1 cells, CCCP 50 μM, imaged right after exposure, versus vehicle control, n=4 cultures/group
Description: Mouse HL-1 cardiomyocytes are maintained in Claycomb media (Sigma-Alrich). Images are taken right after exposure to low-dose CCCP (50 μM) or vehicle. We prepared 4 dishes for each group, and acquired a total of 16 fields per group (4 fields per dish).
TPEF Data Acquisition: For TPEF imaging, cell cultures are placed in home-made micro-incubator system, which maintained 37° C. and 5% CO2 within a humidified environment throughout the imaging session. […] Images are obtained using a custom-built microscope with a 40×water dipping objective (NA 1.1) or a 25×water dipping objective (NA 0.95, for in vivo imaging only) equipped with a tunable (710-920 nm) Ti: sapphire laser (Mai Tai; Spectra Physics; Mountain View, Calif.). Emission events are registered by a photomultiplier tube (PMT) detector attached to a commercial time-correlated single photon counting (TCSPC) electronics module. To isolate NADH fluorescence, a 460(±20) nm emission filter (Chroma, ET460/40M-2P), corresponding to the NADH emission peak, was placed before the detector. NADH fluorescence images are acquired from this 460 nm detector using 755 nm excitation. FAD fluorescence was isolated using 525(±25) nm emission filter (Chroma, ET525/50M-2P) and 860 nm excitation. […] The laser power and PMT gain are recorded for each image and used to normalize fluorescence intensity.
Optical Redox Ratio Calculation: To process the optical redox ratio, firstly the fluorescence intensity of either NADH or FAD at each pixel was taken as the total photon counts detected during the integration time without spatial binning. For cell cultures, the cytoplasm of cells was selected based on the intensity threshold (FIG. 2F), while the segmentation of cell cytoplasm and lipid areas for BAT tissues was extracted by a combination of fluorescence intensity and lifetime information (FIGS. 71-7F). Pixel-wise redox ratio maps are created by normalized fluorescence intensities as: FAD/(FAD+NADH). […]

In the case of “carbonyl cyanide m-chlorophenyl hydrazine [CCCP]”, the “bound NADH fraction (NADH fluorescence lifetime, phasor analysis)” value is reported as “increase”, the “mitochondrial clustering (β from PSD)” value is reported as “increased” and the “optical redox ratio FAD/(NADH+FAD)” value is reported as “elevated”.
